Laboratory results: ChEMBL document CHEMBL3880437, “Modulators of the prostacyclin (PGI2) receptor useful for the treatment of disorders related thereto” (2014)

Tests used:
Platelet = test: Inhibition of ADP-induced platelet aggregation in human platelet rich plasma pre-incubated for 1 min before ADP addition and measured 3 mins post ADP addition by aggregometry; type: functional
Prostacyclin receptor = Prostacyclin receptor (Homo sapiens, UniProt P43119); test: Agonist activity at human recombinant prostacyclin receptor expressed in CHO-K1 cells assessed as induction of cAMP accumulation incubated for 1 hr by HTRF assay; type: functional, cell-based
Chain of Prostacyclin receptor (P43119 whole entry): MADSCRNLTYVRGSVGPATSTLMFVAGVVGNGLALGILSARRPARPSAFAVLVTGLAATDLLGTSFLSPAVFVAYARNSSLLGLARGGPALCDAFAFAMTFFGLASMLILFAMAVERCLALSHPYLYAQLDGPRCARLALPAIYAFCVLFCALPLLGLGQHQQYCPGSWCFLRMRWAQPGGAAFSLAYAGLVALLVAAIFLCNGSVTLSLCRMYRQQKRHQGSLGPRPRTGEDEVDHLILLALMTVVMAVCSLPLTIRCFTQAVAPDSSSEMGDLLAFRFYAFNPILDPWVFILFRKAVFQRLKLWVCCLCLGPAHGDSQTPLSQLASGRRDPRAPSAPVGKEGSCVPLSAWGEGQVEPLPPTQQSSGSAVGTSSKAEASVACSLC

SMILES | IC50 (Platelet) | EC50 (Prostacyclin receptor)
O=C(O)COC[C@H]1CC[C@H](COC(=O)N(c2ccc(F)cc2)c2ccc(F)cc2)CC1 | 0.0105 to 1.59 µM | 0.0027 to 2.65 µM
O=C(O)COC[C@H]1CC[C@H](COC(=O)N(c2ccccc2)c2ccc(F)c(Cl)c2)CC1 | 0.0105 to 1.59 µM | 0.0027 to 2.65 µM
O=C(O)COC[C@H]1CC[C@H](COC(=O)Nc2ccccc2)CC1 | 0.0105 to 1.59 µM | 0.0027 to 2.65 µM
O=C(O)COC[C@H]1CC[C@H](COC(=O)N(c2cccc(F)c2)c2cccc(OC(F)(F)F)c2)CC1 | 0.0105 to 1.59 µM | 0.0027 to 2.65 µM
Cc1ccc(N(C(=O)OC[C@H]2CC[C@H](COCC(=O)O)CC2)c2ccccc2)cc1F | 0.0105 to 1.59 µM | 0.0027 to 2.65 µM
O=C(O)COC[C@H]1CC[C@H](COC(=O)N(c2cccc(F)c2)c2cccc(Cl)c2)CC1 | 0.0105 to 1.59 µM | 0.0027 to 2.65 µM
O=C(O)COC[C@H]1CC[C@H](COC(=O)N(c2ccccc2)c2cnccn2)CC1 | 0.0105 to 1.59 µM | 0.0027 to 2.65 µM
O=C(O)COC[C@H]1CC[C@@H](COC(=O)N(c2ccccc2)c2ccc(F)cc2)CC1 | 0.0105 to 1.59 µM | –
O=C(O)COC[C@H]1CC[C@H](CNC(=O)NC(c2ccccc2)c2ccccc2)CC1 | 0.0105 to 1.59 µM | 0.0027 to 2.65 µM
O=C(O)COC[C@H]1CC[C@H](COC(=O)N(c2cccc(F)c2)c2cnccn2)CC1 | 0.0105 to 1.59 µM | 0.0027 to 2.65 µM
O=C(O)COC[C@H]1CC[C@H](COC(=O)N(c2ccccc2)c2cccc(F)c2F)CC1 | 0.0105 to 1.59 µM | 0.0027 to 2.65 µM
Cc1ccc(N(C(=O)OC[C@H]2CC[C@H](COCC(=O)O)CC2)c2ccccc2)cc1 | 0.0105 to 1.59 µM | 0.0027 to 2.65 µM
O=C(O)COC[C@H]1CC[C@H](COC(=O)N(c2ccccc2)c2cc(F)cc(F)c2)CC1 | 0.0105 to 1.59 µM | 0.0027 to 2.65 µM
Cc1cnc(N(C(=O)OC[C@H]2CC[C@H](COCC(=O)O)CC2)c2ccccc2)s1 | 0.0105 to 1.59 µM | 0.0027 to 2.65 µM
Cc1cncc(N(C(=O)OC[C@H]2CC[C@H](COCC(=O)O)CC2)c2ccccc2)c1 | 0.0105 to 1.59 µM | 0.0027 to 2.65 µM
Cc1ccc(N(C(=O)NC[C@H]2CC[C@H](COCC(=O)O)CC2)c2ccccc2)cc1 | 0.0105 to 1.59 µM | 0.0027 to 2.65 µM
O=C(O)COC[C@H]1CC[C@H](COC(=O)N(c2cccc(F)c2)c2ccc(F)c(Cl)c2)CC1 | 0.0105 to 1.59 µM | 0.0027 to 2.65 µM
O=C(O)COC[C@H]1CC[C@H](COC(=O)N(c2cccnc2)c2cccc(F)c2)CC1 | 0.0105 to 1.59 µM | 0.0027 to 2.65 µM
O=C(O)COC[C@H]1CC[C@H](COC(=O)N(c2ccccc2)c2ccc(F)cn2)CC1 | 0.0105 to 1.59 µM | 0.0027 to 2.65 µM
Cc1cccc(N(C(=O)OC[C@H]2CC[C@H](COCC(=O)O)CC2)c2ccc(F)cc2)c1 | 0.0105 to 1.59 µM | 0.0027 to 2.65 µM
O=C(O)COC[C@H]1CC[C@H](COC(=O)N(c2ccccc2)c2ccnc(F)c2)CC1 | 0.0105 to 1.59 µM | 0.0027 to 2.65 µM
O=C(O)COC[C@H]1CC[C@H](COC(=O)N(c2ccccc2)c2ccccc2)CC1 | 0.0105 to 1.59 µM | 0.0027 to 2.65 µM

SMILES | IC50 (Platelet) | EC50 (Prostacyclin receptor)
O=C(O)COC[C@H]1CC[C@H](COC(=O)N(c2ccccc2)c2ccc(Cl)cn2)CC1 | 0.0105 to 1.59 µM | 0.0027 to 2.65 µM
CCOc1ccc(N(C(=O)OC[C@H]2CC[C@H](COCC(=O)O)CC2)c2ccc(F)cc2)cc1 | 0.0105 to 1.59 µM | 0.0027 to 2.65 µM
COc1cccc(N(C(=O)OC[C@H]2CC[C@@H](COCC(=O)O)CC2)c2ccccc2)c1 | 0.0105 to 1.59 µM | 0.0027 to 2.65 µM
CCCN(C(=O)OC[C@H]1CC[C@H](COCC(=O)O)CC1)C(c1ccccc1)c1ccccc1 | 0.0105 to 1.59 µM | 0.0027 to 2.65 µM
Cc1ccc(N(C(=O)OC[C@H]2CC[C@H](COCC(=O)O)CC2)c2ccc(F)cc2)s1 | 0.0105 to 1.59 µM | 0.0027 to 2.65 µM
O=C(O)COC[C@H]1CC[C@H](CNC(=O)N(c2ccccc2)c2cccc(F)c2)CC1 | 0.0105 to 1.59 µM | 0.0027 to 2.65 µM
COc1ccc(N(C(=O)OC[C@H]2CC[C@H](COCC(=O)O)CC2)c2cccc(F)c2)cc1 | 0.0105 to 1.59 µM | –
O=C(O)COC[C@H]1CC[C@@H](COC(=O)N(c2ccccc2)c2ccccc2)CC1 | 0.0105 to 1.59 µM | 0.0027 to 2.65 µM
O=C(O)COC[C@H]1CC[C@H](COC(=O)N(c2cccc(F)c2)c2ccc(Cl)c(F)c2)CC1 | 0.0105 to 1.59 µM | 0.0027 to 2.65 µM
CN(C[C@H]1CC[C@H](COCC(=O)O)CC1)C(=O)N(c1ccccc1)c1ccccc1 | 0.0105 to 1.59 µM | 0.0027 to 2.65 µM
O=C(O)COC[C@H]1CC[C@@H](COC(=O)N(c2ccccc2)c2cccc(F)c2)CC1 | 0.0105 to 1.59 µM | –
O=C(O)COC[C@H]1CC[C@H](CNC(=O)N(c2ccccc2)c2cccc(C(F)(F)F)c2)CC1 | 0.0105 to 1.59 µM | 0.0027 to 2.65 µM
O=C(O)COC[C@H]1CC[C@H](COC(=O)N(c2ccccc2)c2ccc(C(F)(F)F)cn2)CC1 | 0.0105 to 1.59 µM | 0.0027 to 2.65 µM
O=C(O)COC[C@H]1CC[C@H](CNC(=O)N(c2ccccc2)c2ccc(F)c(F)c2)CC1 | 0.0105 to 1.59 µM | 0.0027 to 2.65 µM
O=C(O)COC[C@H]1CC[C@H](COC(=O)N(c2cccc(F)c2)c2ccc(F)c(F)c2)CC1 | 0.0105 to 1.59 µM | 0.0027 to 2.65 µM
COc1ccc(N(C(=O)OC[C@H]2CC[C@H](COCC(=O)O)CC2)c2ccccc2)cc1 | 0.0105 to 1.59 µM | 0.0027 to 2.65 µM
O=C(O)COC[C@H]1CC[C@H](COC(=O)N(c2ccccc2)c2cccnc2)CC1 | 0.0105 to 1.59 µM | 0.0027 to 2.65 µM
O=C(O)COC[C@H]1CC[C@H](CNC(=O)N(c2ccccc2)c2cccc(Cl)c2)CC1 | 0.0105 to 1.59 µM | –
O=C(O)COC[C@H]1CC[C@@H](CNC(=O)N(c2ccccc2)c2ccccc2)CC1 | 0.0105 to 1.59 µM | –
Cc1ccc(N(C(=O)OC[C@H]2CC[C@H](COCC(=O)O)CC2)c2cccc(F)c2)s1 | 0.0105 to 1.59 µM | –
O=C(O)COC[C@H]1CC[C@H](COC(=O)N(c2ccccc2)c2cccc(Cl)c2)CC1 | 0.0105 to 1.59 µM | –

Other lines, results leading:

IC50 (Platelet) | EC50 (Prostacyclin receptor) | SMILES
0.0105 to 1.59 µM | 0.0027 to 2.65 µM | COc1cccc(N(C(=O)NC[C@H]2CC[C@H](COCC(=O)O)CC2)c2ccccc2)c1
0.0105 to 1.59 µM | 0.0027 to 2.65 µM | O=C(O)COC[C@H]1CC[C@H](COC(=O)N(c2ccc(F)nc2)c2cccc(F)c2)CC1
0.0105 to 1.59 µM | 0.0027 to 2.65 µM | O=C(O)COC[C@H]1CC[C@H](CNC(=O)N(c2ccccc2)c2cccc(Cl)c2F)CC1
0.0105 to 1.59 µM | 0.0027 to 2.65 µM | Cc1cccc(N(C(=O)OC[C@H]2CC[C@H](COCC(=O)O)CC2)c2cccc(F)c2)c1
0.0105 to 1.59 µM | 0.0027 to 2.65 µM | Cc1cccc(N(C(=O)OC[C@H]2CC[C@H](COCC(=O)O)CC2)c2ccccc2)c1
0.0105 to 1.59 µM | 0.0027 to 2.65 µM | Cc1ccc(N(C(=O)OC[C@H]2CC[C@@H](COCC(=O)O)CC2)c2ccccc2)cc1
0.0105 to 1.59 µM | 0.0027 to 2.65 µM | COc1cccc(N(C(=O)OC[C@H]2CC[C@H](COCC(=O)O)CC2)c2ccccc2)c1
0.0105 to 1.59 µM | 0.0027 to 2.65 µM | O=C(O)COC[C@H]1CC[C@H](COC(=O)N(c2ccccc2)c2ccc(Cl)c(F)c2)CC1
0.0105 to 1.59 µM | 0.0027 to 2.65 µM | O=C(O)COC[C@H]1CC[C@H](COC(=O)N(c2ccc(F)cc2)c2ccc(Cl)cc2)CC1
0.0105 to 1.59 µM | – | O=C(O)CNC(=O)COC[C@H]1CC[C@H](COC(=O)N(c2ccccc2)c2ccc(Cl)cc2)CC1
0.0105 to 1.59 µM | 0.0027 to 2.65 µM | COc1ccccc1N(C(=O)OC[C@H]1CC[C@@H](COCC(=O)O)CC1)c1ccccc1
0.0105 to 1.59 µM | 0.0027 to 2.65 µM | O=C(O)COC[C@H]1CC[C@H](CNC(=O)N(c2ccccc2)c2cccc(F)c2F)CC1
0.0105 to 1.59 µM | 0.0027 to 2.65 µM | O=C(O)COC[C@H]1CC[C@H](COC(=O)N(c2ccccc2)c2cc(F)cc(Cl)c2)CC1
0.0105 to 1.59 µM | 0.0027 to 2.65 µM | O=C(O)COC[C@H]1CC[C@H](CNC(=O)N(c2ccccc2)c2cc(F)cc(F)c2)CC1
0.0105 to 1.59 µM | 0.0027 to 2.65 µM | O=C(O)COC[C@H]1CC[C@H](COC(=O)N(c2ccc(O)cc2)c2ccc(Cl)cc2)CC1
0.0105 to 1.59 µM | 0.0027 to 2.65 µM | O=C(O)COC[C@H]1CC[C@H](COC(=O)N(c2ccc(F)cc2)c2cccc(F)c2)CC1
0.0105 to 1.59 µM | – | O=C(O)COC[C@H]1CC[C@@H](COC(=O)N(c2ccccc2)c2ccc(Cl)cc2)CC1

IC50 (Platelet) | EC50 (Prostacyclin receptor) | SMILES
0.0105 to 1.59 µM | – | O=C(O)COC[C@H]1CC[C@H](COC(=O)N(c2ccccc2)c2ccc(F)cc2)CC1
0.0105 to 1.59 µM | 0.0027 to 2.65 µM | O=C(O)COC[C@H]1CC[C@H](CNC(=O)N(c2ccccc2)c2cc(F)cc(Cl)c2)CC1
0.0105 to 1.59 µM | 0.0027 to 2.65 µM | O=C(O)COC[C@H]1CC[C@H](CNC(=O)N(c2ccccc2)c2ccccc2F)CC1
0.0105 to 1.59 µM | 0.0027 to 2.65 µM | COc1ccc(N(C(=O)OC[C@H]2CC[C@@H](COCC(=O)O)CC2)c2ccccc2)cc1
0.0105 to 1.59 µM | 0.0027 to 2.65 µM | Cc1ccc(N(C(=O)OC[C@H]2CC[C@H](COCC(=O)O)CC2)c2cccc(F)c2)cc1F
0.0105 to 1.59 µM | 0.0027 to 2.65 µM | O=C(O)COC[C@H]1CC[C@H](CNC(=O)N(c2ccccc2)c2ccc(Cl)cc2)CC1
0.0105 to 1.59 µM | 0.0027 to 2.65 µM | O=C(O)COC[C@H]1CC[C@H](COC(=O)N(c2ccccc2)c2ccc(F)c(F)c2)CC1
0.0105 to 1.59 µM | 0.0027 to 2.65 µM | COc1cncc(N(C(=O)OC[C@H]2CC[C@H](COCC(=O)O)CC2)c2ccccc2)c1
0.0105 to 1.59 µM | 0.0027 to 2.65 µM | O=C(O)COC[C@H]1CC[C@H](COC(=O)N(c2ccc(F)cc2)c2ccc(OC(F)(F)F)cc2)CC1
0.0105 to 1.59 µM | 0.0027 to 2.65 µM | Cc1cc(C)cc(N(C(=O)OC[C@H]2CC[C@H](COCC(=O)O)CC2)c2cccc(F)c2)c1
0.0105 to 1.59 µM | 0.0027 to 2.65 µM | COc1cccc(N(C(=O)NC[C@H]2CC[C@H](COCC(=O)O)CC2)c2ccccc2)c1F
0.0105 to 1.59 µM | 0.0027 to 2.65 µM | O=C(O)COC[C@H]1CC[C@H](COC(=O)N(c2ccccc2)c2cncc(F)c2)CC1
0.0105 to 1.59 µM | 0.0027 to 2.65 µM | Cc1ccc(N(C(=O)NC[C@H]2CC[C@H](COCC(=O)O)CC2)c2ccc(C)cc2)cc1
0.0105 to 1.59 µM | 0.0027 to 2.65 µM | Cc1ccc(N(C(=O)OC[C@H]2CC[C@H](COCC(=O)O)CC2)c2cccc(F)c2)cc1
0.0105 to 1.59 µM | 0.0027 to 2.65 µM | O=C(O)COC[C@H]1CC[C@H](CNC(=O)N(c2ccccc2)c2ccc(F)cc2)CC1
0.0105 to 1.59 µM | 0.0027 to 2.65 µM | O=C(O)COC[C@H]1CC[C@H](COC(=O)N(c2ccc(Cl)cc2)c2cccc(F)c2)CC1
